Assay results as given in PMC10107140, “Preparative‐Scale Biocatalytic Oxygenation of N‐Heterocycles with a Lyophilized Peroxygenase Catalyst” (Angewandte Chemie (International Ed. in English), 2022).

Assays:
Format in all cases: biochemical
[1] = molecular target: T1, rAaeUPO-PaDa-I-H (unspecific peroxygenase) (Cyclocybe aegerita, UniProt B9W4V6, F354L/I291V/L110F/V100A/V118I); assay: competition-based 5-nitro-1,3-benzodioxole peroxygenase assay
T1 construct: gene APO1; recombinant, expressed in Pichia pastoris, C-terminal histidine tag

[2] = molecular target: T1, rAaeUPO-PaDa-I-H (unspecific peroxygenase); assay: competition-based 5-nitro-1,3-benzodioxole peroxygenase assay; also converted to (R)-alcohol […]
[3] = molecular target: T1, rAaeUPO-PaDa-I-H (unspecific peroxygenase); assay: as above; remark: listed apart in the source

T1 sequence (B9W4V6 44-371 V100A/L110F/V118I/I291V/F354L): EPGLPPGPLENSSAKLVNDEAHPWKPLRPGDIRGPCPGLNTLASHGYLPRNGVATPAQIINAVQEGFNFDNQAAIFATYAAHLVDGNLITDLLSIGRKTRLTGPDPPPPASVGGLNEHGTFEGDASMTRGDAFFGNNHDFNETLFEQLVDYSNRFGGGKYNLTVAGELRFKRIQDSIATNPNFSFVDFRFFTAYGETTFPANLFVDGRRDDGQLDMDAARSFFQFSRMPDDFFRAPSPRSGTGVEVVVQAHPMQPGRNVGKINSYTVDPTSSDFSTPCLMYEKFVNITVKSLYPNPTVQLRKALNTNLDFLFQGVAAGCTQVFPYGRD

Compound CCc1ccncc1 [compound 6, 4-ethylpyridine] has an IC50 [1] of 16 µM.
With CCc1cccnc1 [compound 10, 3-ethylpyridine] the IC50 [2] was 700 µM.
CCc1ccccn1 [compound 14, 2-ethylpyridine] was tested, and the IC50 [3] was 29500 µM.
